Assay results taken from paper PMC11767077, “Experimental Validation of Antiobesogenic and Osteoprotective Efficacy of Ginsenoside CK via Targeting Lipid and Atherosclerosis Pathways” (Life, 2024).
Values after ≈ are worked out from the molar mass of the structure shown.

Molecular target: α-glucosidase
Assay: p-NPG colorimetric enzyme assay, […] nm, commercial α-glucosidase
Format: biochemical

CC(C)=CCC[C@](C)(O[C@@H]1O[C@H](CO)[C@@H](O)[C@H](O)[C@H]1O)[C@H]1CC[C@]2(C)[C@@H]1[C@H](O)C[C@@H]1[C@@]3(C)CC[C@H](O)C(C)(C)[C@@H]3CC[C@]12C [CK, ginsenoside CK]
IC50: 22.83 µg/mL (≈ 36.7 µM)
